Data reported in patent publication US12509463B2, “JAK inhibitor and preparation method therefor” (FELICAMED BIOTECHNOLOGY CO., LTD., priority 2019, dated 2025).

Assays:
JAK1 = target: T1, JAK1 (Homo sapiens, UniProt P23458); assay: JAK1 enzymology experiment (HTRF KinEASE-TK); format: biochemical; details: JAK1 enzyme activity, 10 uM ATP, 19.76 nM JAk1, 30 min at 25° C., HTRF 665/615; read-out: Relative IC50
T1 construct: purchased Thermo PV4774
Procedure: JAK1 is a protein tyrosine kinase, and purchased from Thermo (Cat #PV4774). ATP was purchased from Thermo […] was purchased from Selleck (Cat #55001), and HTRF KinEASE-TK kit was purchased from Cisbio (Cat #62TKOPEC).
HTRF®KinEASE™-TK was a universal method to measure activity of tyrosine kinase by a substrate and a universal detection system. The reaction was performed in a 384-well plate (Greiner, Cat #784075), and the total reaction system was 20 ul. The reaction system mainly included a 1× kinase buffer solution, 5 mM MgCl2, 0.625 mM EGTA, 0.06 uM SEB, 1 mM DTT, 0.01% Brij-35, 1 uM TK-Sub-biotin and 10 uM ATP. The compounds prepared in Examples 1-8 and the control compound Oclacitinib were continuously diluted by DMSO to 10 concentration points, and then 100 nl was transferred to a test plate. After 19.76 nM JAk1 was added, the reaction started, 30 min after reaction at 25° C., a detection reagent was added to terminate the reaction (0.25×TK Antibody, 62.5 nM Streptavidin-XL665). After standing for 60 min at room temperature, FRET signal was read out on a Spark 10M or an envision plate reader. (HTRF 665/615=665 nm signal value/615 nm signal value).
665/615 signal ratio was converted to percentage inhibition. […]

[1] = system: pruritus caused by atopic dermatitis; details: dogs, cited from earlier work
Canine PBMC cells = assay: IL-2 and ConA induced proliferation of canine PBMC cells (flow cytometry, CD4+ population); format: cell-based; details: Canis lupus familiaris, CFSE stained, IL-2 and concanavalin A, 120 h, MFI of CD4+ population, read-out: Cell IC50
Procedure: Recombinant canine IL-2 (Cys147Ser) protein was purchased from R&D (Cat #1815-CL-020/CF). Canine CD4 Alexa Fluor 647-conjugated antibody was purchased from R&D […] A from Canavalia ensiformis (Jack bean) was purchased from Sigma (Cat #C5275-5MG). Oclacitinib maleate was purchased from AbMole Bioscience (Cat #M5827). PBMC cells were purchased from AllCells (Cat #DPB-002).
Flow cytometry is a technology used for detecting and measuring physical and chemical characteristics of populations of cells or particles. Canine PBMC was collected and stained with CFSE, and then the cells (1×10*5 cells/well) were inoculated onto a 96-well plate and incubated for 1 h in a 5% CO2 incubator at 37° C. […] Afterwards, cells were collected and stained with canine CD4 Alexa Fluor 647-conjugated antibodies.
Samples containing cells were resuspended by a staining buffer and injected into a flow cytometry. […] When cells passed through laser beam, a detector detected the scattered light of the cells or particles. The front detector detected forward scatter (FS), multiple detectors placed on the side detected side scatter (SS); and a fluorescence detector detected fluorescence emitted by the stained cells or particles. […]
CD4^+ was circled from lymphocyte populations. MFI of the CD4^+ population was calculated. […]

T1 sequence (P23458 866-1154 limits assumed): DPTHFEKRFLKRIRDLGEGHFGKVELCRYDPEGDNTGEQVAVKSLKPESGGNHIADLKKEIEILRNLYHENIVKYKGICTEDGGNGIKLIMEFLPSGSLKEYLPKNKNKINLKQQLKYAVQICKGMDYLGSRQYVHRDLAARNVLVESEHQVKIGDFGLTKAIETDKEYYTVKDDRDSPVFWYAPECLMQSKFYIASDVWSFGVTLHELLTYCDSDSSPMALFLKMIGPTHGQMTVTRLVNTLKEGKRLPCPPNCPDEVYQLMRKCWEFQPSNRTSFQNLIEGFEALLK

IC50 (JAK1): 12.9 nM
SMILES: CNS(=O)(=O)C[C@H]1CC[C@H](N(C)c2ncnc3[nH]ccc23)CC1 [Oclacitinib]
laboratory animals with more than 50% pruritus reaction relieved ([1]; on the 7th day of treatment): exceeding 70%
time to relieve itching ([1]; oral 0.4-0.6 mg/kg twice a day): ≤ 24 h
treatment of pruritus caused by atopic dermatitis ([1]; oral 0.4-0.6 mg/kg twice a day): safe and effective
IC50 (Canine PBMC cells): 447 nM
